Measurements as given in US8716242B2, “β-hairpin peptidomimetics” (priority 2009, dated 2014).
Numbered stars: 1 amine (or outer) side, 2 acyl side, 3 side chain; on linkers, the order of the positions; unused ones are H or OH. Bridge positions count the residues as written; N and C are the ends. Square brackets hold non-standard residues; d marks the D form. Side chains are listed from the residue outwards. Peptide text beside a SMILES is read from it. * marks the point of attachment. γGlu = O=C(O)[C@H](CCC(=O)[*:2])N[*:1]; Palmitoyl = CCCCCCCCCCCCCCCC(=O)*; Myristoyl = CCCCCCCCCCCCCC(=O)*; Lauroyl = CCCCCCCCCCCC(=O)*; Dab = NCC[C@H](N)C(=O)O

What was measured:
[1] = Plasma stability in human plasma; format: in vitro ADME; conditions: human plasma, 37° C.; for remaining at 24 h, 10 μM: 1440 min, read-out: human pl. cpd left at 1440 min
In short: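 Peptides (1 mM DMSO/H2O stock) were spiked into human or mouse plasma in triplicate and incubated at 37 °C, sampling from 0 to 1440 min. Samples were quenched in formic acid/acetonitrile and analysed by LC/MS MRM. Remaining percent of t=0 was calculated and T1/2 derived by trend fitting.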

[2] = Cytotoxicity, MTT reduction assay, HELA cells; format: cell-based; conditions: human, HELA cells (Acc57), 12.5-50 μM
In short: (§1)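 HELA (4000/well) and COS-7 (3400/well) cells were grown 24 h, then exposed 48 h at 37° C to peptides at 12.5, 25 and 50 μM in triplicate. MTT reduction read at 595 nm; growth % relative to time-zero, and GI50 interpolated by trend line.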

[3] = Cytotoxicity, MTT reduction assay, COS-7 cells; format: cell-based; conditions: African green monkey, COS-7 cells (CRL-1651), 12.5-50 μM
In short: as §1

CCCCCCCCCCCC(=O)NCCCC[C@@H]1NC(=O)[C@H](Cc2ccc(O)cc2)NC(=O)[C@@H]2CSSC[C@H](NC(=O)[C@H](C)NC(=O)[C@H](Cc3c[nH]cn3)NC(=O)[C@H](Cc3ccc(O)cc3)NC(=O)[C@@H]3CCCN3C(=O)[C@H]3CCCN3C(=O)[C@H](CCCCN)NC1=O)C(=O)N[C@@H](CCCNC(=N)N)C(=O)N[C@@H](C)C(=O)N1CCC[C@@H]1C(=O)N[C@@H](CCN)C(=O)N[C@@H](CCCNC(=N)N)C(=O)N[C@@H](Cc1ccc(O)cc1)C(=O)N2 [Ex. 17] (cyclo(YHACRA[dP][Dab]RYCYK(Lauroyl)K[dP]P); disulfide 4-11)
remaining at 24 h, 10 μM [1]: 65%
human pl. T1/2 ([1]; up to 1440 min): 24 h
GI50 at 48 h [2]: > 44 µM
GI50 at 48 h [3]: > 50 µM

CCCCCCCCCCCCCCCC(=O)NCCCC[C@@H]1NC(=O)[C@H](Cc2ccc(O)cc2)NC(=O)[C@@H]2CSSC[C@H](NC(=O)[C@H](Cc3ccc(O)cc3)NC(=O)[C@H](Cc3c[nH]cn3)NC(=O)[C@H](Cc3ccc(O)cc3)NC(=O)[C@@H]3CCCN3C(=O)[C@H]3CCCN3C(=O)[C@H](CCCCN)NC1=O)C(=O)N[C@@H](CO)C(=O)N[C@@H](C)C(=O)N1CCC[C@@H]1C(=O)N[C@@H](CCN)C(=O)N[C@@H](CCCNC(=N)N)C(=O)N[C@@H](Cc1ccc(O)cc1)C(=O)N2 [Ex. 20] (cyclo(YHYCSA[dP][Dab]RYCYK(Palmitoyl)K[dP]P); disulfide 4-11)
remaining at 24 h, 10 μM [1]: 54%
human pl. T1/2 ([1]; up to 1440 min): 24 h
GI50 at 48 h [2]: > 31 µM
GI50 at 48 h [3]: > 50 µM

CCCCCCCCCCCC(=O)N[C@@H](CCC(=O)NCCCC[C@@H]1NC(=O)[C@H](Cc2ccc(O)cc2)NC(=O)[C@@H]2CSSC[C@H](NC(=O)[C@H](Cc3ccc(O)cc3)NC(=O)[C@H](Cc3c[nH]cn3)NC(=O)[C@H](Cc3ccc(O)cc3)NC(=O)[C@@H]3CCCN3C(=O)[C@H]3CCCN3C(=O)[C@H](CCCCN)NC1=O)C(=O)N[C@@H](CO)C(=O)N[C@@H](C)C(=O)N1CCC[C@@H]1C(=O)N[C@@H](CCN)C(=O)N[C@@H](CCCNC(=N)N)C(=O)N[C@@H](Cc1ccc(O)cc1)C(=O)N2)C(=O)O [Ex. 25] (cyclo(YHYCSA[dP][Dab]RYCYK([γGlu-Lauroyl])K[dP]P); disulfide 4-11)
remaining at 24 h, 10 μM [1]: 78%
human pl. T1/2 ([1]; up to 1440 min): 24 h
GI50 at 48 h [2]: > 43 µM
GI50 at 48 h [3]: > 50 µM

CCCCCCCCCCCC(=O)N[C@@H](CCC(=O)NCCCC[C@@H]1NC(=O)[C@H](Cc2ccc(O)cc2)NC(=O)[C@@H]2CSSC[C@H](NC(=O)[C@H](C)NC(=O)[C@H](Cc3c[nH]cn3)NC(=O)[C@H](Cc3ccc(O)cc3)NC(=O)[C@@H]3CCCN3C(=O)[C@H]3CCCN3C(=O)[C@H](CCCCN)NC1=O)C(=O)N[C@@H](CCCNC(=N)N)C(=O)N[C@@H](C)C(=O)N1CCC[C@@H]1C(=O)N[C@@H](CCN)C(=O)N[C@@H](CCCNC(=N)N)C(=O)N[C@@H](Cc1ccc(O)cc1)C(=O)N2)C(=O)O [Ex. 26] (cyclo(YHACRA[dP][Dab]RYCYK([γGlu-Lauroyl])K[dP]P); disulfide 4-11)
remaining at 24 h, 10 μM [1]: 82%
human pl. T1/2 ([1]; up to 1440 min): 24 h
GI50 at 48 h [2]: > 50 µM
GI50 at 48 h [3]: > 50 µM

CCCCCCCCCCCCCC(=O)N[C@@H](CCC(=O)NCCCC[C@@H]1NC(=O)[C@H](Cc2ccc(O)cc2)NC(=O)[C@@H]2CSSC[C@H](NC(=O)[C@H](Cc3ccc(O)cc3)NC(=O)[C@H](Cc3c[nH]cn3)NC(=O)[C@H](Cc3ccc(O)cc3)NC(=O)[C@@H]3CCCN3C(=O)[C@H]3CCCN3C(=O)[C@H](CCCCN)NC1=O)C(=O)N[C@@H](CO)C(=O)N[C@@H](C)C(=O)N1CCC[C@@H]1C(=O)N[C@@H](CCN)C(=O)N[C@@H](CCCNC(=N)N)C(=O)N[C@@H](Cc1ccc(O)cc1)C(=O)N2)C(=O)O [Ex. 28] (cyclo(YHYCSA[dP][Dab]RYCYK([γGlu-Myristoyl])K[dP]P); disulfide 4-11)
remaining at 24 h, 10 μM [1]: 80%
half-life at 10 μM ([1]; up to 1440 min, read-out: human pl. T1/2): 19.1 h
GI50 at 48 h [2]: > 39 µM
GI50 at 48 h [3]: > 50 µM

CCCCCCCCCCCCCCCC(=O)N[C@@H](CCC(=O)NCCCC[C@@H]1NC(=O)[C@H](Cc2ccc(O)cc2)NC(=O)[C@@H]2CSSC[C@H](NC(=O)[C@H](Cc3ccc(O)cc3)NC(=O)[C@H](Cc3c[nH]cn3)NC(=O)[C@H](Cc3ccc(O)cc3)NC(=O)[C@@H]3CCCN3C(=O)[C@H]3CCCN3C(=O)[C@H](CCCCN)NC1=O)C(=O)N[C@@H](CO)C(=O)N[C@@H](C)C(=O)N1CCC[C@@H]1C(=O)N[C@@H](CCN)C(=O)N[C@@H](CCCNC(=N)N)C(=O)N[C@@H](Cc1ccc(O)cc1)C(=O)N2)C(=O)O [Ex. 29] (cyclo(YHYCSA[dP][Dab]RYCYK([γGlu-Palmitoyl])K[dP]P); disulfide 4-11)
remaining at 24 h, 10 μM [1]: 74%
human pl. T1/2 ([1]; up to 1440 min): 24 h
GI50 at 48 h [2]: > 47 µM
GI50 at 48 h [3]: > 50 µM
